Species: Rattus norvegicus
Assay: Open TG-GATES - Regimen: Daily Repeat
Type: toxicity, organism-based, Sprague-Dawley
Parameters: regimen Daily Repeat, gender Male, age 6 weeks
Conditions: in vivo, po, route gavage; for APTT / Bas / Eos / Fbg / Hb / Ht / Lym / MCH / MCHC / MCV / Mono / Neu / PT / Plat / RBC / Ret / WBC: tissue Blood; for KIDNEY_L / KIDNEY_R / KIDNEY_TOTAL: tissue Kidney; for LIVER: tissue Liver; for A/G / ALP / ALT / AST / BUN / CRE / Ca / Cl / DBIL / GLC / IP / K / LDH / Na / PL / RALB / TBIL / TC / TG / TP / gamma-GTP: tissue Plasma
[1] = 0 mg/kg, 72 h, dose level Control, time 3 day
[2] = 0 mg/kg, […], dose level Control, time 7 day
[3] = 0 mg/kg, […], dose level Control, time 14 day
[4] = 0 mg/kg, […], dose level Control, time 28 day
[5] = 30 mg/kg, 72 h, dose level Low, time 3 day
[6] = 30 mg/kg, […], dose level Low, time 7 day
[7] = 30 mg/kg, […], dose level Low, time 14 day
[8] = 30 mg/kg, […], dose level Low, time 28 day

Brc1ccccc1 [BROMOBENZENE]
TERMINAL_BW [1]: 210.3 g
APTT [1]: 15.5 s
Bas [1]: 0%
Eos [1]: 1%
Fbg [1]: 264.4 mg/dL
Hb [1]: 13.1 g/dL
Ht [1]: 38.3%
Lym [1]: 79.8%
MCH [1]: 21.4 pg
MCHC [1]: 34.3%
MCV [1]: 62.4 fL
Mono [1]: 3.2%
Neu [1]: 15.6%
PT [1]: 12 s
Plat [1]: 116.4 x10_4/uL
RBC [1]: 613.6 x10_4/ul
Ret [1]: 7.8%
WBC [1]: 89.2 x10_2/uL
KIDNEY_L [1]: 0.9 g
KIDNEY_R [1]: 0.8 g
KIDNEY_TOTAL [1]: 1.7 g
LIVER [1]: 10 g
A/G [1]: 0.9
ALP [1]: 1625.4 IU/L
ALT [1]: 52.2 IU/L
AST [1]: 77.8 IU/L
BUN [1]: 14.8 mg/dL
CRE [1]: 0.2 mg/dL
Ca [1]: 10.2 mg/dL
Cl [1]: 104.8 meq/L
DBIL [1]: 0.012 mg/dL
GLC [1]: 187 mg/dL
IP [1]: 7.6 mg/dL
K [1]: 4 meq/L
LDH [1]: 63.6 IU/L
Na [1]: 141.8 meq/L
PL [1]: 142.6 mg/dL
RALB [1]: 2.6 g/dL
TBIL [1]: 0.04 mg/dL
TC [1]: 79 mg/dL
TG [1]: 101 mg/dL
TP [1]: 5.7 g/dL
gamma-GTP [1]: 1.2 IU/L
TERMINAL_BW [2]: 242.1 g
TERMINAL_BW [3]: 295 g
TERMINAL_BW [4]: 384.4 g
APTT [2]: 15.7 s
Bas [2]: 0.2%
Eos [2]: 1%
Fbg [2]: 283.4 mg/dL
Hb [2]: 13.4 g/dL
Ht [2]: 39%
Lym [2]: 78.4%
MCH [2]: 21.4 pg
MCHC [2]: 34.5%
MCV [2]: 61.9 fL
Mono [2]: 2.8%
Neu [2]: 18%
PT [2]: 12.3 s
Plat [2]: 115.5 x10_4/uL
RBC [2]: 630.4 x10_4/ul
Ret [2]: 5.8%
WBC [2]: 112.8 x10_2/uL
APTT [3]: 15.8 s
Bas [3]: 0%
Eos [3]: 0.8%
Fbg [3]: 320.2 mg/dL
Hb [3]: 13.8 g/dL
Ht [3]: 39.9%
Lym [3]: 77%
MCH [3]: 20.8 pg
MCHC [3]: 34.7%
MCV [3]: 60 fL
Mono [3]: 2.4%
Neu [3]: 19%
PT [3]: 12 s
Plat [3]: 113.5 x10_4/uL
RBC [3]: 665.6 x10_4/ul
Ret [3]: 4.4%
WBC [3]: 89.1 x10_2/uL
APTT [4]: 17.6 s
Bas [4]: 0%
Eos [4]: 1.6%
Fbg [4]: 301 mg/dL
Hb [4]: 14.9 g/dL
Ht [4]: 42.4%
Lym [4]: 79.4%
MCH [4]: 19.4 pg
MCHC [4]: 35.1%
MCV [4]: 55.4 fL
Mono [4]: 2.6%
Neu [4]: 15.4%
PT [4]: 12.5 s
Plat [4]: 103.9 x10_4/uL
RBC [4]: 765 x10_4/ul
Ret [4]: 2.4%
WBC [4]: 110.4 x10_2/uL
KIDNEY_L [2]: 1 g
KIDNEY_R [2]: 1 g
KIDNEY_TOTAL [2]: 2 g
KIDNEY_L [3]: 1.2 g
KIDNEY_R [3]: 1.1 g
KIDNEY_TOTAL [3]: 2.3 g
KIDNEY_L [4]: 1.3 g
KIDNEY_R [4]: 1.3 g
KIDNEY_TOTAL [4]: 2.6 g
LIVER [2]: 11 g
LIVER [3]: 12.9 g
LIVER [4]: 16.6 g
A/G [2]: 0.8
ALP [2]: 1737.2 IU/L
ALT [2]: 51 IU/L
AST [2]: 72.6 IU/L
BUN [2]: 14.8 mg/dL
CRE [2]: 0.2 mg/dL
Ca [2]: 11 mg/dL
Cl [2]: 107 meq/L
DBIL [2]: 0.012 mg/dL
GLC [2]: 191.2 mg/dL
IP [2]: 7 mg/dL
K [2]: 3.9 meq/L
LDH [2]: 97 IU/L
Na [2]: 143.8 meq/L
PL [2]: 145.8 mg/dL
RALB [2]: 2.7 g/dL
TBIL [2]: 0.044 mg/dL
TC [2]: 75.4 mg/dL
TG [2]: 90.2 mg/dL
TP [2]: 5.9 g/dL
gamma-GTP [2]: 1 IU/L
A/G [3]: 0.8
ALP [3]: 1619.6 IU/L
ALT [3]: 39.2 IU/L
AST [3]: 67.8 IU/L
BUN [3]: 15.8 mg/dL
CRE [3]: 0.2 mg/dL
Ca [3]: 10.8 mg/dL
Cl [3]: 106.6 meq/L
DBIL [3]: 0 mg/dL
GLC [3]: 191.6 mg/dL
IP [3]: 6.8 mg/dL
K [3]: 3.9 meq/L
LDH [3]: 64.2 IU/L
Na [3]: 143.2 meq/L
PL [3]: 153 mg/dL
RALB [3]: 2.7 g/dL
TBIL [3]: 0.032 mg/dL
TC [3]: 75.6 mg/dL
TG [3]: 95 mg/dL
TP [3]: 5.9 g/dL
gamma-GTP [3]: 1 IU/L
A/G [4]: 0.8
ALP [4]: 1341.6 IU/L
ALT [4]: 45.8 IU/L
AST [4]: 64 IU/L
BUN [4]: 16 mg/dL
CRE [4]: 0.2 mg/dL
Ca [4]: 10.7 mg/dL
Cl [4]: 104 meq/L
DBIL [4]: 0.018 mg/dL
GLC [4]: 186.6 mg/dL
IP [4]: 6 mg/dL
K [4]: 3.8 meq/L
LDH [4]: 71.4 IU/L
Na [4]: 142.2 meq/L
PL [4]: 157.8 mg/dL
RALB [4]: 2.9 g/dL
TBIL [4]: 0.036 mg/dL
TC [4]: 80.2 mg/dL
TG [4]: 158.4 mg/dL
TP [4]: 6.5 g/dL
gamma-GTP [4]: 1 IU/L
TERMINAL_BW [5]: 211.4 g
APTT [5]: 16.2 s
Bas [5]: 0%
Eos [5]: 1%
Fbg [5]: 274.2 mg/dL
Hb [5]: 13.2 g/dL
Ht [5]: 38.9%
Lym [5]: 76.6%
MCH [5]: 21.2 pg
MCHC [5]: 34%
MCV [5]: 62.4 fL
Mono [5]: 4.2%
Neu [5]: 17.8%
PT [5]: 12 s
Plat [5]: 113.4 x10_4/uL
RBC [5]: 624.8 x10_4/ul
Ret [5]: 7.4%
WBC [5]: 117.5 x10_2/uL
KIDNEY_L [5]: 0.9 g
KIDNEY_R [5]: 0.9 g
KIDNEY_TOTAL [5]: 1.8 g
LIVER [5]: 10.6 g
A/G [5]: 0.9
ALP [5]: 1588.2 IU/L
ALT [5]: 54.2 IU/L
AST [5]: 70.2 IU/L
BUN [5]: 13.8 mg/dL
CRE [5]: 0.2 mg/dL
Ca [5]: 10.4 mg/dL
Cl [5]: 105.2 meq/L
DBIL [5]: 0.012 mg/dL
GLC [5]: 182 mg/dL
IP [5]: 7.3 mg/dL
K [5]: 4.1 meq/L
LDH [5]: 77 IU/L
Na [5]: 142 meq/L
PL [5]: 154 mg/dL
RALB [5]: 2.6 g/dL
TBIL [5]: 0.05 mg/dL
TC [5]: 84.6 mg/dL
TG [5]: 76 mg/dL
TP [5]: 5.6 g/dL
gamma-GTP [5]: 1.2 IU/L
TERMINAL_BW [6]: 250.4 g
TERMINAL_BW [7]: 301.3 g
TERMINAL_BW [8]: 378.5 g
APTT [6]: 16.1 s
Bas [6]: 0%
Eos [6]: 1%
Fbg [6]: 272.4 mg/dL
Hb [6]: 12.9 g/dL
Ht [6]: 37.6%
Lym [6]: 78%
MCH [6]: 21.3 pg
MCHC [6]: 34.4%
MCV [6]: 62 fL
Mono [6]: 2.6%
Neu [6]: 18%
PT [6]: 12.7 s
Plat [6]: 117.9 x10_4/uL
RBC [6]: 606.8 x10_4/ul
Ret [6]: 6.2%
WBC [6]: 100.6 x10_2/uL
APTT [7]: 16 s
Bas [7]: 0%
Eos [7]: 0.8%
Fbg [7]: 316.2 mg/dL
Hb [7]: 14.2 g/dL
Ht [7]: 41.2%
Lym [7]: 81.6%
MCH [7]: 20.5 pg
MCHC [7]: 34.5%
MCV [7]: 59.2 fL
Mono [7]: 2.6%
Neu [7]: 14.4%
PT [7]: 11.7 s
Plat [7]: 116 x10_4/uL
RBC [7]: 696.6 x10_4/ul
Ret [7]: 4.2%
WBC [7]: 87.7 x10_2/uL
APTT [8]: 16.4 s
Bas [8]: 0.2%
Eos [8]: 1.2%
Fbg [8]: 305.8 mg/dL
Hb [8]: 15 g/dL
Ht [8]: 42.8%
Lym [8]: 75.6%
MCH [8]: 19.7 pg
MCHC [8]: 35%
MCV [8]: 56.2 fL
Mono [8]: 3%
Neu [8]: 19%
PT [8]: 12.6 s
Plat [8]: 103.7 x10_4/uL
RBC [8]: 762.2 x10_4/ul
Ret [8]: 2.7%
WBC [8]: 101.5 x10_2/uL
KIDNEY_L [6]: 1 g
KIDNEY_R [6]: 1 g
KIDNEY_TOTAL [6]: 2 g
KIDNEY_L [7]: 1.2 g
KIDNEY_R [7]: 1.2 g
KIDNEY_TOTAL [7]: 2.4 g
KIDNEY_L [8]: 1.3 g
KIDNEY_R [8]: 1.3 g
KIDNEY_TOTAL [8]: 2.7 g
LIVER [6]: 12.3 g
LIVER [7]: 14.5 g
LIVER [8]: 16.3 g
A/G [6]: 0.9
ALP [6]: 1766.2 IU/L
ALT [6]: 40.6 IU/L
AST [6]: 71 IU/L
BUN [6]: 14.4 mg/dL
CRE [6]: 0.2 mg/dL
Ca [6]: 11.1 mg/dL
Cl [6]: 105.2 meq/L
DBIL [6]: 0.01 mg/dL
GLC [6]: 195 mg/dL
IP [6]: 7 mg/dL
K [6]: 3.9 meq/L
LDH [6]: 109 IU/L
Na [6]: 143.4 meq/L
PL [6]: 143 mg/dL
RALB [6]: 2.7 g/dL
TBIL [6]: 0.042 mg/dL
TC [6]: 74.6 mg/dL
TG [6]: 84.4 mg/dL
TP [6]: 5.8 g/dL
gamma-GTP [6]: 1.4 IU/L
A/G [7]: 0.8
ALP [7]: 1573.2 IU/L
ALT [7]: 40 IU/L
AST [7]: 65 IU/L
BUN [7]: 15.2 mg/dL
CRE [7]: 0.2 mg/dL
Ca [7]: 11 mg/dL
Cl [7]: 105.6 meq/L
DBIL [7]: 0.01 mg/dL
GLC [7]: 191.6 mg/dL
IP [7]: 6.8 mg/dL
K [7]: 4.1 meq/L
LDH [7]: 84.8 IU/L
Na [7]: 143 meq/L
PL [7]: 158.2 mg/dL
RALB [7]: 2.8 g/dL
TBIL [7]: 0.038 mg/dL
TC [7]: 74.2 mg/dL
TG [7]: 159.4 mg/dL
TP [7]: 6.2 g/dL
gamma-GTP [7]: 0.8 IU/L
A/G [8]: 0.8
ALP [8]: 1032.4 IU/L
ALT [8]: 36 IU/L
AST [8]: 59.8 IU/L
BUN [8]: 15.8 mg/dL
CRE [8]: 0.2 mg/dL
Ca [8]: 10.7 mg/dL
Cl [8]: 105.8 meq/L
DBIL [8]: 0.016 mg/dL
GLC [8]: 190.2 mg/dL
IP [8]: 6 mg/dL
K [8]: 3.8 meq/L
LDH [8]: 58.6 IU/L
Na [8]: 142.8 meq/L
PL [8]: 152.2 mg/dL
RALB [8]: 2.9 g/dL
TBIL [8]: 0.034 mg/dL
TC [8]: 80.6 mg/dL
TG [8]: 141.4 mg/dL
TP [8]: 6.5 g/dL
gamma-GTP [8]: 1 IU/L
